Measurements as given in patent US9499538B2, “Estrogen receptor modulators and uses thereof” (Seragon Pharmaceuticals, Inc., priority 2012, dated 2016).

Columns and labels:
ER-α in MCF-7 cells = biological target: T1, ER-α in MCF-7 cells (Homo sapiens, UniProt P03372); test: Breast Cancer Cell ER-α In Cell Western Assay (SP1); format: cell-based; conditions: 4 or 24 hr post compound addition; for Emax: MCF7, SP1 antibody, read-out: ER-α In Cell Western Assay (SP1) Max Response; for DC50: SP1 antibody, read-out: ER-α In Cell Western Assay (SP1) IC50
T1 construct: endogenous in cells; host or cells: MCF-7
T1 sequence (P03372 1-595): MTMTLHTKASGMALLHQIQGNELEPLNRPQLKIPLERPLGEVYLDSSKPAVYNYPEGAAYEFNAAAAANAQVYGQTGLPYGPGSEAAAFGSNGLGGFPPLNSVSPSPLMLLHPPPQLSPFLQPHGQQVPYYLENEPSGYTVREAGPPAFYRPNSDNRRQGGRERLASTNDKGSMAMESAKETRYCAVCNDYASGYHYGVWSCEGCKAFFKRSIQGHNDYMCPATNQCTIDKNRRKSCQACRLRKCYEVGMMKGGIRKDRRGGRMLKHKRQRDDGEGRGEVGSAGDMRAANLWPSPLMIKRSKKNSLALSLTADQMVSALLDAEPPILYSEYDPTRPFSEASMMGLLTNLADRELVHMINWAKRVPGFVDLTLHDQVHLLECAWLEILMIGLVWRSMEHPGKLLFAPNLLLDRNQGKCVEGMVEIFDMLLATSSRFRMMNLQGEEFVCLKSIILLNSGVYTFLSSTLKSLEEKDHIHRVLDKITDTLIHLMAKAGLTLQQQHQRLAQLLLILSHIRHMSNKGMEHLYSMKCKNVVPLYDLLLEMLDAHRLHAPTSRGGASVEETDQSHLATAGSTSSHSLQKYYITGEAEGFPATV
Method in brief: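 MCF-7 cells in charcoal-stripped FBS medium, treated with 11-point semilog dilutions (0.3–0.000003 μM final) for 4 or 24 h. Fixed cells immunostained with SP1 antibody (800 nm) and DRAQ5 DNA (700 nm); ER/DNA ratio expressed as % of untreated cells.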

MCF-7 cells = test: Breast Cancer Cell Viability Assays (MCF-7, CellTiter-Glo); format: cell-based; conditions: 5 days' compound exposure; for IC50: Homo sapiens, MCF7, 120 h
Method in brief: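 MCF-7 cells (320/well, RPMI with 10% FBS) exposed for 5 days to an eleven-point semilog series, 0.3–0.000003 μM final. Viability read by CellTiter-Glo luminescence, expressed as background-corrected percent of untreated cells.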

| SMILES | Emax (ER-α in MCF-7 cells) | DC50 (ER-α in MCF-7 cells) | IC50 (MCF-7 cells) | MCF7 Viability Assay Max Response (MCF-7 cells) |
| --- | --- | --- | --- | --- |
| O=C(O)/C=C/c1ccc(/C(=C(\c2ccncc2C(F)(F)F)C2CCC2)c2ccc3[nH]nc(F)c3c2)cc1 [Example 47, (E)-3-(4-((E)-2-Cyclobutyl-1-(3-fluoro-1H-indazol-5-yl)-2-(3-(trifluoromethyl)pyridin-4-yl)vinyl)phenyl)acrylic acid] | ≥ 40% | ≤ 0.1 µM | ≤ 0.1 µM | ++ (++ = a single % value ≧ 40%) |
| O=C(O)/C=C/c1ccc(/C(=C(\c2ccncc2F)C2CCC2)c2ccc3[nH]nc(F)c3c2)cc1 [Example 52, (E)-3-(4-((E)-2-Cyclobutyl-1-(3-fluoro-1H-indazol-5-yl)-2-(3-fluoropyridin-4-yl)vinyl)phenyl)acrylic acid] | ≥ 40% | ≤ 0.1 µM | ≤ 0.1 µM | ++ (++ = a single % value ≧ 40%) |
| N#Cc1ccc(/C(=C(\c2ccc(/C=C/C(=O)O)cc2)c2ccc3[nH]ncc3c2)C2CCC2)c(F)c1 [Example 53, (E)-3-(4-((E)-2-(4-Cyano-2-fluorophenyl)-2-cyclobutyl-1-(1H-indazol-5-yl)vinyl)phenyl)acrylic acid] | ≥ 40% | ≤ 0.1 µM | ≤ 0.1 µM | ++ (++ = a single % value ≧ 40%) |
| Cc1cc(C#N)ccc1/C(=C(\c1ccc(/C=C/C(=O)O)cc1)c1ccc2[nH]ncc2c1)C1CCC1 [Example 55, (E)-3-(4-((E)-2-(4-Cyano-2-methylphenyl)-2-cyclobutyl-1-(1H-indazol-5-yl)vinyl)phenyl)acrylic acid] | ≥ 40% | ≤ 0.1 µM | ≤ 0.1 µM | ++ (++ = a single % value ≧ 40%) |
| CC/C(=C(/c1ccc(/C=C/C(=O)O)cc1)c1ccc2[nH]nc(F)c2c1)c1cccc(Oc2cncc(S(C)(=O)=O)n2)c1 [Example 56, (E)-3-(4-((E)-1-(3-Fluoro-1H-indazol-5-yl)-2-(3-((6-(methylsulfonyl)pyrazin-2-yl)oxy)phenyl)but-1-en-1-yl)phenyl)acrylic acid] | ≥ 40% | ≤ 0.1 µM | > 0.1 µM | ++ (++ = a single % value ≧ 40%) |
| CC/C(=C(/c1ccc(/C=C/C(=O)O)cc1)c1ccc2[nH]nc(F)c2c1)c1cccc(Oc2cnc(S(C)(=O)=O)cn2)c1 [Example 57, (E)-3-(4-((E)-1-(3-Fluoro-1H-indazol-5-yl)-2-(3-((5-(methylsulfonyl)pyrazin-2-yl)oxy)phenyl)but-1-en-1-yl)phenyl)acrylic acid] | ≥ 40% | ≤ 0.1 µM | ≤ 0.1 µM | ++ (++ = a single % value ≧ 40%) |
| CC/C(=C(/c1ccc(/C=C/C(=O)O)cc1)c1ccc2[nH]nc(F)c2c1)c1ccc(Oc2cncc(S(C)(=O)=O)n2)cc1 [Example 58, (E)-3-(4-((E)-1-(3-Fluoro-1H-indazol-5-yl)-2-(4-((6-(methylsulfonyl)pyrazin-2-yl)oxy)phenyl)but-1-en-1-yl)phenyl)acrylic acid] | ≥ 40% | > 0.1 µM | > 0.1 µM | ++ (++ = a single % value ≧ 40%) |
| CC/C(=C(/c1ccc(/C=C/C(=O)O)cc1)c1ccc2[nH]nc(F)c2c1)c1ccc(Oc2cnc(S(C)(=O)=O)cn2)cc1 [Example 59, (E)-3-(4-((E)-1-(3-Fluoro-1H-indazol-5-yl)-2-(4-((5-(methylsulfonyl)pyrazin-2-yl)oxy)phenyl)but-1-en-1-yl)phenyl)acrylic acid] | ≥ 40% | ≤ 0.1 µM | ≤ 0.1 µM | ++ (++ = a single % value ≧ 40%) |
| N#Cc1ccc(/C(=C(\c2ccc(/C=C/C(=O)O)cc2)c2ccc3[nH]ncc3c2F)C2CCC2)c(F)c1 [Example 60, (E)-3-(4-((E)-2-(4-Cyano-2-fluorophenyl)-2-cycobutyl-1-(4-fluoro-1H-indazol-5-yl)vinyl)phenyl)acrylic acid] | ≥ 40% | ≤ 0.1 µM | ≤ 0.1 µM | ++ (++ = a single % value ≧ 40%) |
| N#Cc1cc(Cl)ccc1/C(=C(\c1ccc(/C=C/C(=O)O)cc1)c1ccc2[nH]ncc2c1F)C1CCC1 [Example 61, (E)-3-(4-((E)-2-(4-Chloro-2-cyanophenyl)-2-cyclobutyl-1-(4-fluoro-1H-indazol-5-yl)vinyl)phenyl)acrylic acid] | ≥ 40% | ≤ 0.1 µM | ≤ 0.1 µM | ++ (++ = a single % value ≧ 40%) |
| CC/C(=C(/c1ccc(/C=C/C(=O)O)cc1)c1ccc2[nH]nc(F)c2c1)c1ccc(OC)cc1C [Example 63, (E)-3-(4-((E)-1-(3-Fluoro-1H-indazol-5-yl)-2-(4-methoxy-2-methylphenyl)but-1-en-1-yl)phenyl)acrylic acid] | ≥ 40% | ≤ 0.1 µM | ≤ 0.1 µM | ++ (++ = a single % value ≧ 40%) |
| COc1ccc(/C(=C(\c2ccc(/C=C/C(=O)O)cc2)c2ccc3[nH]ncc3c2)C2CCC2)c(C)c1 [Example 64, (E)-3-(4-((E)-2-Cyclobutyl-1-(1H-indazol-5-yl)-2-(4-methoxy-2-methylphenyl)vinyl)phenyl)acrylic acid] | ≥ 40% | ≤ 0.1 µM | ≤ 0.1 µM | ++ (++ = a single % value ≧ 40%) |
| COc1ccc(/C(=C(\c2ccc(/C=C/C(=O)O)cc2)c2ccc3[nH]nc(F)c3c2)C2CCC2)c(C)c1 [Example 65, (E)-3-(4-((E)-2-Cyclobutyl-1-(3-fluoro-1H-indazol-5-yl)-2-(4-methoxy-2-methylphenyl)vinyl)phenyl)acrylic acid] | ≥ 40% | ≤ 0.1 µM | ≤ 0.1 µM | ++ (++ = a single % value ≧ 40%) |

Second part, led by results:

| Emax (ER-α in MCF-7 cells) | DC50 (ER-α in MCF-7 cells) | IC50 (MCF-7 cells) | SMILES | MCF7 Viability Assay Max Response (MCF-7 cells) |
| --- | --- | --- | --- | --- |
| ≥ 40% | ≤ 0.1 µM | ≤ 0.1 µM | N#Cc1ccc(/C(=C(\c2ccc(/C=C/C(=O)O)cc2)c2ccc3[nH]nc(F)c3c2)C2CCC2)c(F)c1 [Example 48, (E)-3-(4-((E)-2-(4-Cyano-2-fluorophenyl)-2-cyclobutyl-1-(3-fluoro-1H-indazol-5-yl)vinyl)phenyl)acrylic acid] | ++ (++ = a single % value ≧ 40%) |
| ≥ 40% | ≤ 0.1 µM | ≤ 0.1 µM | N#Cc1cc(F)ccc1/C(=C(\c1ccc(/C=C/C(=O)O)cc1)c1ccc2[nH]nc(F)c2c1)C1CCC1 [Example 49, (E)-3-(4-((E)-2-(2-Cyano-4-fluorophenyl)-2-cyclobutyl-1-(3-fluoro-1H-indazol-5-yl)vinyl)phenyl)acrylic acid] | ++ (++ = a single % value ≧ 40%) |
| ≥ 40% | ≤ 0.1 µM | ≤ 0.1 µM | Cc1cc(C#N)ccc1/C(=C(\c1ccc(/C=C/C(=O)O)cc1)c1ccc2[nH]nc(F)c2c1)C1CCC1 [Example 50, (E)-3-(4-((E)-2-(4-Cyano-2-methylphenyl)-2-cyclobutyl-1-(3-fluoro-1H-indazol-5-yl)vinyl)phenyl)acrylic acid] | ++ (++ = a single % value ≧ 40%) |
| ≥ 40% | ≤ 0.1 µM | ≤ 0.1 µM | CS(=O)(=O)c1ccc(/C(=C(\c2ccc(/C=C/C(=O)O)cc2)c2ccc3[nH]nc(F)c3c2)C2CCC2)c(F)c1 [Example 51, (E)-3-(4-((E)-2-Cyclobutyl-1-(3-fluoro-1H-indazol-5-yl)-2-(2-fluoro-4-(methylsulfonyl)phenyl)vinyl)phenyl)acrylic acid] | ++ (++ = a single % value ≧ 40%) |
| ≥ 40% | ≤ 0.1 µM | ≤ 0.1 µM | N#Cc1cc(F)ccc1/C(=C(\c1ccc(/C=C/C(=O)O)cc1)c1ccc2[nH]ncc2c1)C1CCC1 [Example 54, (E)-3-(4-((E)-2-(2-Cyano-4-fluorophenyl)-2-cyclobutyl-1-(1H-indazol-5-yl)vinyl)phenyl)acrylic acid] | ++ (++ = a single % value ≧ 40%) |
| ≥ 40% | ≤ 0.1 µM | ≤ 0.1 µM | N#Cc1ccc(/C(=C(\c2ccc(/C=C/C(=O)O)cc2)c2ccc3[nH]nc(F)c3c2)C2CCC2)c(C#N)c1 [Example 62, (E)-3-(4-((E)-2-Cyclobutyl-2-(2,4-dicyanophenyl)-1-(3-fluoro-1H-indazol-5-yl)vinyl)phenyl)acrylic acid] | ++ (++ = a single % value ≧ 40%) |
| ≥ 40% | ≤ 0.1 µM | ≤ 0.1 µM | N#Cc1cc(F)ccc1/C(=C(\c1ccc(/C=C/C(=O)O)cc1)c1ccc2[nH]ncc2c1F)C1CCC1 [Example 66, (E)-3-(4-((E)-2-(2-Cyano-4-fluorophenyl)-2-cyclobutyl-1-(4-fluoro-1H-indazol-5-yl)vinyl)phenyl)acrylic acid] | ++ (++ = a single % value ≧ 40%) |
